Results as given in patent US6951887B2 (The Research Foundation of State University of New York, priority 1998, dated 2005).

Legend:
Hep G2 = experiment: killing of cultured cells, Hep G2; format: cell-based; set-up: key to cells killed by treatment: “+” indicates that the cells were killed by treatment; “−” indicates that they were not; “+/−” indicates a slow marginal response seen only in a few special cases with fibroblasts experimentally transformed by introduction of the ras oncogene; details: Hep G2; compound at two to fourfold above its threshold killing concentration
Text: (§1) Table 1: Summarized are the responses of cells in culture to killing by example members of the family of blocked lipoate derivatives that are the object of this invention as well as one control compound (dihydroxyoctanoic acid). At right is indicated the specific cell line followed by the tissue of origin of the cell line. Across the top are listed the specific compounds tested. Each blocked lipoate derivative was used at two to fourfold above its threshold killing concentration. [These concentrations range form 0.15 mM (60 ug/ml or 60 mg/kg) to 2.5 mM (800 ug/ml or 800 mg/kg) (see EXAMPLE 11).] […] “+/−” indicates a slow marginal response seen only in a few special cases with fibroblasts experimentally transformed by introduction of the ras oncogene (EXAMPLE 10).
(§2) First, each cell type to be tested was plated at low densities in the wells of a standard 6×24 well tissue culture plate. (Multiple wells are seeded for each cell type.)
(§3) Second, the cells were allowed to grow to moderate densities. Transformed cells are in contact and non-transformed cells are contact-inhibited under these conditions.
(§4) Third, the lipoate derivatives to be tested were added to individual wells. In these experiments each compound was added at two to fourfold above the threshold killing concentration for cancer cells (EXAMPLE 11).
(§5) Fourth, cells were monitored over the next several days.

SW480 (Colon) = experiment: killing of cultured cells, SW480; format: cell-based; set-up: key: “+” indicates that the cells were killed by treatment; “−” indicates that they were not; “+/−” indicates a slow marginal response seen only in a few special cases with fibroblasts experimentally transformed by introduction of the ras oncogene; details: compound at two to fourfold above its threshold killing concentration
Text: as §1, §2, §3, §4, §5

A549 (Lung) = experiment: killing of cultured cells, A549; format: cell-based; set-up: key to cells killed by treatment: “+” indicates that the cells were killed by treatment; “−” indicates that they were not; “+/−” indicates a slow marginal response seen only in a few special cases with fibroblasts experimentally transformed by introduction of the ras oncogene; details: A549, Lung; compound at two to fourfold above its threshold killing concentration
Text: as §1, §2, §3, §4, §5

LnCap (Prostate) = experiment: killing of cultured cells, LnCap; format: cell-based; set-up: key: “+” indicates that the cells were killed by treatment; “−” indicates that they were not; “+/−” indicates a slow marginal response seen only in a few special cases with fibroblasts experimentally transformed by introduction of the ras oncogene; details: compound at two to fourfold above its threshold killing concentration
Text: as §1, §2, §3, §4, §5

MCF 7 (Breast) = experiment: killing of cultured cells, MCF 7; format: cell-based; set-up: key: “+” indicates that the cells were killed by treatment; “−” indicates that they were not; “+/−” indicates a slow marginal response seen only in a few special cases with fibroblasts experimentally transformed by introduction of the ras oncogene; details: compound at two to fourfold above its threshold killing concentration
Text: as §1, §2, §3, §4, §5

HeLa (Cervix) = experiment: killing of cultured cells, HeLa; format: cell-based; set-up: key to cells killed by treatment: “+” indicates that the cells were killed by treatment; “−” indicates that they were not; “+/−” indicates a slow marginal response seen only in a few special cases with fibroblasts experimentally transformed by introduction of the ras oncogene; details: Cervix, compound at two to fourfold above its threshold killing concentration
Text: as §1, §2, §3, §4, §5

B16 (Skin) = experiment: killing of cultured cells, B16; format: cell-based; set-up: key: “+” indicates that the cells were killed by treatment; “−” indicates that they were not; “+/−” indicates a slow marginal response seen only in a few special cases with fibroblasts experimentally transformed by introduction of the ras oncogene; details: compound at two to fourfold above its threshold killing concentration
Text: as §1, §2, §3, §4, §5

RD (Embryo) = experiment: killing of cultured cells, RD; format: cell-based; set-up: key to cells killed by treatment: “+” indicates that the cells were killed by treatment; “−” indicates that they were not; “+/−” indicates a slow marginal response seen only in a few special cases with fibroblasts experimentally transformed by introduction of the ras oncogene; details: RD, Embryo; compound at two to fourfold above its threshold killing concentration
Text: as §1, §2, §3, §4, §5

Saos 2 (Bone) = experiment: killing of cultured cells, Saos 2; format: cell-based; set-up: key: “+” indicates that the cells were killed by treatment; “−” indicates that they were not; “+/−” indicates a slow marginal response seen only in a few special cases with fibroblasts experimentally transformed by introduction of the ras oncogene; details: compound at two to fourfold above its threshold killing concentration
Text: as §1, §2, §3, §4, §5

NIH 3T3 ras transformed = experiment: killing of cultured cells, ras-transformed NIH 3T3 (T24); format: cell-based; set-up: key to cells killed by treatment: “+” indicates that the cells were killed by treatment; “−” indicates that they were not; “+/−” indicates a slow marginal response seen only in a few special cases with fibroblasts experimentally transformed by introduction of the ras oncogene; details: NIH 3T3 ras transformed; compound at two to fourfold above its threshold killing concentration
Text: as §1, §2, §3, §4, §5
NIH-3T3 cells are relatively normal, noncancerous cells. However, if an activated allele of the ras oncogene is introduced into these cells they become highly malignant (cancerous) as assessed by several assays (REFERENCE).

cancer cells in culture = experiment: threshold killing concentration and dose response in cultured cells; format: cell-based; details: for threshold killing concentration: approximate center of a range extending two to threefold
Text: First, each compound killed cancer cells in culture at or above a relatively narrow, specific concentration range, but not below. The threshold concentrations given below represent the approximate center of this range which extended roughly two to threefold. […] Below these saturation ranges, sensitive cells survived and grew. They could be removed and replated to grow, apparently indefinitely, under these conditions. […] This was a highly unusual dose/response profile. The threshold killing concentrations (ranges) varied between individual compounds. Examples of these threshold killing concentrations were as follows: bis-benzoyl lipoate (EXAMPLE 3) 60 mg/liter (60 mg/kg), monoacetyl lipoate (EXAMPLE 4) 100 mg/liter (100 mg/kg); bis-acetyl lipoate (EXAMPLE 2) 600 mg/liter (600 mg/kg).
These changes were ultimately followed by cell death if treatment was continued. However, these morphological changes were reversed, and the cells recovered, if the lipoate derivative was removed during this initial exposure. As with the dose/response profile of the preceeding paragraph, this reversible induction of morphological change followed by commitment to cell death is highly idiosyncratic. The discovery that this behavior was shown by all tested members of the class of compounds that are the object of this invention was, again, very strong evidence that these compounds are, in fact, a functionally coherent class.

[1] = nonspecific toxicity by intraperitoneal injection; details: C57/BL, mouse, in vivo, ip
Protocol: (§6) (All studies described in this section were carried out by intraperitoneal (IP) injection into C57/BL mice.)

C57/BL mice = experiment: nonspecific toxicity by intraperitoneal injection; details: mouse, in vivo, ip
Protocol: as §6

B-16 melanoma = experiment: B-16 system, subcutaneous tumors; format: in vivo, mouse; details: 100 mg/kg twice daily, started at tumors ca. 3-5 mm
Text: The B-16 melanoma strain was introduced either subcutaneously or intraperitoneally into individuals of the C57/BL syngeneic mouse strain (7). When left untreated such mice develop massive tumors in the immediate area of injection as well as secondary metastases throughout the animal—including in the liver and the lungs. These malignant growths result in the early death of the animals. Moreover, the resulting malignant growths are made up of darkly pigmented malignant melanocytes—making their assessment convenient and highly reliable. We will henceforth refer to this as the “B-16 system”.
Second, a group of animals were injected at a subcutaneous site with B-16 cells. […] As this time, one group oL animals (experimentals) began a twice-daily series of injections of the bis-acetyl lipoate derivative (100 mg/kg in 100 ul of isotonic saline) and a second set (controls) of corresponding injections of the saline solvent alone. [See EXAMPLES 2, 8 and 11 for the details of bis-acetyl lipoate derivative.]
Third, in several animals subcutaneous tumors were produced as in the preceding paragraph. After the tumors had grown to visible, palpable size, these animals received both a twice daily IP (systemic) dose of 50 mg/kg of bis-benzoyl lipoate as well as a twice daily direct injection a second dose of the same volume directly into the tumor mass.

HeLa cells = experiment: killing of HeLa cells with or without dichloroacetate (DCA); format: cell-based; details: compound ca. twofold above threshold killing dose plus 5 mM DCA
Protocol: HeLa cells were plated at moderate densities and allowed to attach and grow for ca. 24 hours in a series of wells in a multi-well tissue culture plate. To individual wells of the first subset (control) were added bis-acetyl lipoate, mono-acetyl lipoate or bis-benzoyl lipoate—each at ca. twofold above the threshold killing dose (EXAMPLE 11). To an equivalent (experimental) subset of wells were added these same compounds at the same dose together with the simultaneous addition of DCA to 5 mM final concentration.

Compound | cells killed by treatment (Hep G2) | cells killed by treatment (SW480 (Colon)) | cells killed by treatment (A549 (Lung)) | cells killed by treatment (LnCap (Prostate)) | cells killed by treatment (MCF 7 (Breast)) | cells killed by treatment (HeLa (Cervix)) | cells killed by treatment (B16 (Skin)) | cells killed by treatment (RD (Embryo)) | cells killed by treatment (Saos 2 (Bone)) | cells killed by treatment (NIH 3T3 ras transformed) | threshold killing concentration (cancer cells in culture) | LD50 [1] | maximum well-tolerated dose (C57/BL mice) | response of subcutaneous tumor (B-16 melanoma) | speed of cell killing with DCA relative to compound alone (HeLa cells) | effect on cells in culture (cancer cells in culture; tested up to 5 mM (3200 ug/ml), cell lines of Table 1)
CC(=O)SCCC(CCCCC(=O)O)SC(C)=O (centres unmarked) [bis-acetyl lipoate, 6,8-bisacetylmercaptooctanoic acid] | + | + | + | + | + | + | + | + | + | +/− | 600 mg/L | ~500 mg/kg | ca. 200 mg/kg | palpable softening and apparently partial liquification of the tumor mass followed by a stabilization or a reduction in size | approximately twvice as rapidly | –
CC(=O)SCCC(S)CCCCC(=O)O (centres unmarked) [monoacetyl lipoate, 8-acetylmercapto-6-mercaptooctanoic acid] | + | + | + | + | + | + | + | + | + | + | 100 mg/L | – | – | – | approximately twvice as rapidly | –
O=C([O-])CCCCC(O)CCO.[Na+] (centres unmarked) [dihydroxy octanoic acid, Sodium 6,8-Dihydroxyoctanoate, reference compound] | – | – | – | – | – | – | – | – | – | – | – | – | – | – | – | without detectable effect
NC(=O)CSCCC(CCCCC(=O)O)SCC(N)=O (centres unmarked) [bis carbamoyl lipoate, 6,8-Biscarbamoylmethylmercaptooctanoic acid] | + | – | – | – | – | – | – | – | – | – | – | – | – | – | – | –
CN1C(=O)CC(SCCC(CCCCC(=O)O)SC2CC(=O)N(C)C2=O)C1=O (stereo not drawn) [bis methyl sucimimido lipoate, 6,8-Bis-[S-(N-methylsuccinimido)]mercaptooctanoic acid] | + | + | + | + | + | + | + | + | + | – | – | – | – | – | – | –
